Values after ≈ are worked out from the molar mass of the structure shown. Values joined by “and” are separate entries in the source; they are usually repeats but may differ in a detail not shown here. Identical values can stand only once.
Tests used:
Test in all cases: MIC, broth microdilution (NCCLS M7-A5)
Format in all cases: cell-based
[1] = tested on: S. epidermidis - ATCC 700578; parameters: Staph Epi 700578 MIC: unit not given here; details: for MIC: S. epidermidis - ATCC 700578, Table 3; for Staph Epi 700578 MIC: Table 4, averages of 2 experiments, * single experiment, both values given when differing >2 fold
Procedure: (§1) Minimum inhibitory concentrations (MICs) are determined according to the National Committee for Clinical Laboratory Standards (NCCLS) susceptibility test guideline M7-A5 (Ferraro, M. 2001 Methods for Dilution Antimicrobial Susceptibility Tests for Bacteria that Grow Aerobically; Approved Standard (NCCLS). National Committee for Clinical Laboratory Standards (NCCLS), Villanova) to quantify the antimicrobial activity of the compounds of the present embodiment against various pathogenic bacteria. Susceptibility testing is performed by broth microdilution in accordance with National Committee for Clinical Laboratory Standards (NCCLS) guidelines. This procedure entails combining the test compounds with a standardized number of cells, incubating at the temperature and amount of time appropriate for each particular organism, and visually scoring the concentration at which no growth was apparent in the test wells. The panel includes both drug sensitive and drug resistant isolates of both gram-positive and gram-negative bacteria, including: S. aureus (both MSSA and MRSA), S. pneumoniae (wild type and penicillin-resistant), vancomycin-sensitive E. faecalis, vancomycin-resistant E. faecium, E. coli, H. influenzae and P. aeruginosa.
(§2) Susceptibility testing was performed by broth microdilution in accordance with National Committee for Clinical Laboratory Standards (NCCLS) guidelines. Antimicrobial data for compounds of Formulae II, III, IV, VI, VII, VIII, IX, XII, XIII, XIV, XV′, XV, XVI, XVII, XVIII, XXI′, XXII, XXIII, XXIV, and XXV are shown in Tables 3, 4 and 5.

[2] = tested on: S. epidermidis - ATCC 700582; parameters: Staph Epi 700582 MIC: unit not given here; details: for MIC: S. epidermidis - ATCC 700582, Table 3; for Staph Epi 700582 MIC: Table 4, averages of 2 experiments, * single experiment, both values given when differing >2 fold
Procedure: as §1, §2

[3] = tested on: E. faecalis - Van^s (VSE 29212); parameters: VSE 29212 MIC: unit not given here; details: for MIC: E. faecalis - Van^s, Table 3; for VSE 29212 MIC: Table 4, averages of 2 experiments, * single experiment, both values given when differing >2 fold
Procedure: as §1, §2

E. coli - imp = details: for MIC: E. coli - imp, Table 3; for E. coli imp MIC: Table 5
Procedure: as §1, §2

E. coli - ATCC 25922 = details: Table 3
Procedure: as §1, §2

S. aureus - MRSA (43300) = details: for MIC: S. aureus - MRSA, Table 3; for MRSA 43300 MIC: Table 4, averages of 2 experiments, * single experiment, both values given when differing >2 fold, in µg/mL
Procedure: as §1, §2

[4] = tested on: E. faecium - Van^r (VRE 700221); details: for MIC: E. faecium - Van^r, Table 3; for VRE 700221 MIC: Table 4, averages of 2 experiments, * single experiment, both values given when differing >2 fold
Procedure: as §1, §2

S. aureus - MSSA (29213) = details: for MIC: S. aureus - MSSA, Table 3; for MSSA 29213 MIC: Table 4, averages of 2 experiments, * single experiment, both values given when differing >2 fold, in µg/mL
Procedure: as §1, §2

[5] = tested on: S. pneumoniae - penicillin resistant (51915); details: for MIC: S. pneumoniae - penicillin resistant, Table 3; for S. pneumo 51915 Pen R MIC: Table 4, averages of 2 experiments, * single experiment, both values given when differing >2 fold
Procedure: as §1, §2

[6] = tested on: S. pneumoniae - penicillin sensitive (49619); details: for MIC: S. pneumoniae - penicillin sensitive, Table 3; for S. pneumo 49619 Pen. S MIC: Table 4, averages of 2 experiments, * single experiment, both values given when differing >2 fold
Procedure: as §1, §2

[7] = tested on: H. influenzae - ATCC 49766; details: for MIC: H. influenzae - ATCC 49766, Table 3; for H. inf. 49766: Table 4 (MIC), averages of 2 experiments, * single experiment, both values given when differing >2 fold
Procedure: as §1, §2

[8] = tested on: H. influenzae - ATCC 49247; details: for MIC: H. influenzae - ATCC 49247, Table 3; for H. inf. 49247: Table 4 (MIC), averages of 2 experiments, * single experiment, both values given when differing >2 fold
Procedure: as §1, §2

SMILES | Staph Epi 700578 MIC [1] | Staph Epi 700582 MIC [2] | VSE 29212 MIC [3] | E. coli imp MIC (E. coli - imp) | MRSA 43300 MIC (S. aureus - MRSA (43300)) | VRE 700221 MIC ([4]; in µg/mL) | MSSA 29213 MIC (S. aureus - MSSA (29213)) | S. pneumo 51915 Pen R MIC ([5]; in µg/mL) | H. inf. 49766 [7] | H. inf. 49247 [8] | S. pneumo 49619 Pen. S MIC ([6]; in µg/mL) | further results
COC(=O)c1[nH]cc(-c2c[nH]c3ccc(Cl)cc23)c1-c1c[nH]c2ccc(Cl)cc12 [III] | – | – | – | – | – | – | – | – | – | – | – | MIC [1]: 4 µg/mL (≈ 9.43 µM); MIC [2]: 4 µg/mL (≈ 9.43 µM); MIC [3]: 8 µg/mL (≈ 18.9 µM); MIC (E. coli - imp): 16 µg/mL (≈ 37.7 µM); MIC (E. coli - ATCC 25922): >32 µg/mL; MIC (S. aureus - MRSA (43300)): 2 µg/mL (≈ 4.71 µM); MIC [4]: 8 µg/mL (≈ 18.9 µM); MIC (S. aureus - MSSA (29213)): 1.8 µg/mL (≈ 4.24 µM); MIC [5]: 24 µg/mL (≈ 56.6 µM); MIC [6]: 24 µg/mL (≈ 56.6 µM); MIC [7]: 12 µg/mL (≈ 28.3 µM); MIC [8]: 16 µg/mL (≈ 37.7 µM)
COC(=O)c1[nH]cc(-c2c[nH]c3cc(Cl)c(Cl)cc23)c1-c1c[nH]c2ccc(Cl)cc12 [II] | – | – | – | – | – | – | – | – | – | – | – | MIC [1]: 1 µg/mL (≈ 2.18 µM); MIC [2]: 1 µg/mL (≈ 2.18 µM); MIC [3]: 1.5 µg/mL (≈ 3.27 µM); MIC (E. coli - imp): 6 µg/mL (≈ 13.1 µM); MIC (E. coli - ATCC 25922): >32 µg/mL; MIC (S. aureus - MRSA (43300)): 1 µg/mL (≈ 2.18 µM); MIC [4]: 2 µg/mL (≈ 4.36 µM); MIC (S. aureus - MSSA (29213)): 0.8 µg/mL (≈ 1.74 µM); MIC [5]: 8 µg/mL (≈ 17.4 µM); MIC [6]: 8 µg/mL (≈ 17.4 µM); MIC [7]: 6 µg/mL (≈ 13.1 µM); MIC [8]: 2 µg/mL (≈ 4.36 µM)
Clc1cc2[nH]cc(-c3c[nH]cc3-c3c[nH]c4cc(Cl)c(Cl)cc34)c2cc1Cl [IV] | – | – | – | – | – | – | – | – | – | – | – | MIC [1]: 1 µg/mL (≈ 2.3 µM); MIC [2]: 1 µg/mL (≈ 2.3 µM); MIC [3]: 2.5 µg/mL (≈ 5.75 µM); MIC (E. coli - imp): 6 µg/mL (≈ 13.8 µM); MIC (E. coli - ATCC 25922): >32 µg/mL; MIC (S. aureus - MRSA (43300)): 1.5 µg/mL (≈ 3.45 µM); MIC [4]: 2 µg/mL (≈ 4.6 µM); MIC (S. aureus - MSSA (29213)): 1.1 µg/mL (≈ 2.53 µM); MIC [5]: 20 µg/mL (≈ 46 µM); MIC [6]: 20 µg/mL (≈ 46 µM); MIC [7]: 6 µg/mL (≈ 13.8 µM); MIC [8]: 4 µg/mL (≈ 9.19 µM)
COC(=O)c1[nH]c(C(=O)OC)c(-c2c[nH]c3ccccc23)c1-c1c[nH]c2ccccc12 [IX] | 16 | 16 | >32 | >32 µg/mL | >32 | >32 | >32 | >32 | >32 | >32 | – | S. pneumo 49619 Pen. S MIC [6]: 32, >32
O=C(O)c1[nH]c(C(=O)O)c(-c2c[nH]c3ccc(Cl)cc23)c1-c1c[nH]c2ccc(Cl)cc12 [VIII] | >16 | >16 | >16 | >16 µg/mL | >16 | >16 | >16 | >16 | >16 | >16 | >16 | –
O=C(O)c1[nH]cc(-c2c[nH]c3ccc(Cl)cc23)c1-c1c[nH]c2ccc(Cl)cc12 [VII] | 16* | 16* | >32* | >32 µg/mL | 16* | >32* | 12* | >32* | >32* | >32* | >32* | –
COC(=O)c1[nH]c(C(=O)OC)c(-c2c[nH]c3ncccc23)c1-c1c[nH]c2ccc(Cl)cc12 [XIII] | 8* | 8* | 16* | >32 µg/mL | 4* | 32* | 3* | >32* | >32* | >32* | >32* | –
O=C(O)c1[nH]cc(-c2c[nH]c3cc(Cl)c(Cl)cc23)c1-c1c[nH]c2ccc(Cl)cc12 [XII] | 3 | 6 | 8 | 20 µg/mL | 6 | 8 | 4 | >32 | 10 | 8 | >32 | –
COC(=O)c1[nH]cc(-c2c[nH]c3cc(Cl)c(Cl)cc23)c1-c1c[nH]c2ncccc12 [XIV] | 8* | 8* | 12 | – | 6 | 6 | 6 | 24* | >32* | >32* | 32* | –
COC(=O)c1[nH]c(C(=O)OC)c(-c2c[nH]c3ccc(F)cc23)c1-c1c[nH]c2ccc(F)cc12 [XVIII] | 16* | 16* | >32* | >32 µg/mL | 12* | >32* | 8* | >32* | >32* | >32* | >32* | –
COC(=O)c1[nH]cc(-c2c[nH]c3cc(F)c(Cl)cc23)c1-c1c[nH]c2ccc(Cl)cc12 [XVII] | 1* | 1* | 4* | 8 µg/mL | 1* | 4* | 1* | 24* | 16* | >32* | 16* | –
COC(=O)c1[nH]cc(-c2c[nH]c3ccc(Br)cc23)c1-c1c[nH]c2ccc(Br)cc12 [XVI] | 2.5 | 2.5 | 5 | >32, 32 ug/mL | 2.5 | 6 | 1.4 | 24 | 16 and > 32 | >32 | 20 | –
COC(=O)c1[nH]c(C(=O)OC)c(-c2c[nH]c3ccc(F)cc23)c1-c1c[nH]c2ccccc12 [XXIII] | >32* | 16* | >32* | >32 µg/mL | >32* | >32* | 16* | >32* | >32* | >32* | >32* | –
COC(=O)c1[nH]c(C(=O)OC)c(-c2c[nH]c3cc(F)c(Cl)cc23)c1-c1c[nH]c2ccc(Cl)cc12 [XXII] | 2.5 | 2 | 6 | >32 µg/mL | 1.5 | – | 1.25 | 32 | 4 | – | 32 | VRE 700221 MIC [4]: 16 and > 32
COC(=O)c1[nH]cc(-c2c[nH]c3cc(Cl)c(F)cc23)c1-c1c[nH]c2ccc(F)cc12 [XXIV] | 2* | 2* | 4* | 8 µg/mL | 1.5* | 8* | 1* | 16* | 16* | 16* | 23* | –
COC(=O)c1[nH]c(C(=O)OC)c(-c2c[nH]c3cc(F)ccc23)c1-c1c[nH]c2ccccc12 [XXV] | 8* | 8* | >32* | >32 µg/mL | 8* | >32* | 4* | >32* | 16* | 8* | 32* | –
COC(=O)c1[nH]c(C(=O)OC)c(-c2c[nH]c3ccc(Cl)cc23)c1-c1c[nH]c2ccc(F)cc12 [XX] | 8 | 8 | 24 | >32 µg/mL | 5 | >32 | 4 | – | >32 | – | 32 | S. pneumo 51915 Pen R MIC [5]: >32, 32
